Numbered stars: 1 amine (or outer) side, 2 acyl side, 3 side chain; on linkers, the order of the positions; unused ones are H or OH. Side chains are listed from the residue outwards. Peptide text beside a SMILES is read from it. * marks the point of attachment. γGlu = O=C(O)[C@H](CCC(=O)[*:2])N[*:1]; Palmitoyl = CCCCCCCCCCCCCCCC(=O)*; Ahx = NCCCCCC(=O)O
Columns and labels:
Test in all cases: cAMP activity assay in assay medium (assay 1)
Assay type in all cases: cell-based
Human GlucR = molecular target: T1, Human GlucR (Homo sapiens, UniProt P47871); conditions: assay medium; Table 4; read-out: hGlucR EC50
T1 construct: expressed in transfected cells
From the text: (§1) Biological Activity of Peptides in Cell-Based cAMP Activity Assay (Assay 1):
(§2) All sample dilutions were made in duplicate.

Human GIPr = molecular target: T2, Human GIPr (Homo sapiens, UniProt P48546); conditions: assay medium; Table 4; read-out: hGIPR EC50
T2 construct: expressed in transfected cells
T2 sequence (P48546 22-466): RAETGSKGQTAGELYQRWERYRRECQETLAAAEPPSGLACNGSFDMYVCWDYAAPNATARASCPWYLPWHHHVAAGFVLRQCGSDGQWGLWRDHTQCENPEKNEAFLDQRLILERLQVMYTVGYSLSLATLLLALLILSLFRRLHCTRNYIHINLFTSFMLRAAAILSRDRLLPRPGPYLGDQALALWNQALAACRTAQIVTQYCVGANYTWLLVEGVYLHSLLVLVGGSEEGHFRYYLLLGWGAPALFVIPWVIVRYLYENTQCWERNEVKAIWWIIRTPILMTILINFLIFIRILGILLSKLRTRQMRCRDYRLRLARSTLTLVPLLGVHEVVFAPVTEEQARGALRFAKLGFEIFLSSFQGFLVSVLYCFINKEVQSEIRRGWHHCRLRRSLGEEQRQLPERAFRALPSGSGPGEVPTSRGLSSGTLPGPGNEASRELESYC
From the text: as §1, §2

Human GLP1R = Human GLP1R (Homo sapiens, UniProt P43220); parameters: expressed in transfected cells; conditions: assay medium; Table 4; read-out: hGLP1R EC50
From the text: as §1, §2

Chain of Human GLP1R (P43220 24-463): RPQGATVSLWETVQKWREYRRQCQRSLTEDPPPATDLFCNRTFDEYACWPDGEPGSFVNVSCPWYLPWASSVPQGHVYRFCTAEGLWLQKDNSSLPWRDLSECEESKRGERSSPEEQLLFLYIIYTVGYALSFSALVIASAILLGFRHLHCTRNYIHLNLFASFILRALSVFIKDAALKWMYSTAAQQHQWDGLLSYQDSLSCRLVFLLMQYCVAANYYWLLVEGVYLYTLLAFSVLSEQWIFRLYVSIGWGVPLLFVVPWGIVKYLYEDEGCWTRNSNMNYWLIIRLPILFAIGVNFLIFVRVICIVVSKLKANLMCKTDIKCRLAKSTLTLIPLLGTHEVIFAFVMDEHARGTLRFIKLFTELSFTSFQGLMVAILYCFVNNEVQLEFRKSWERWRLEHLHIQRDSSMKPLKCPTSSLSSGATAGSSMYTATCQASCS
T1 sequence (P47871 26-477): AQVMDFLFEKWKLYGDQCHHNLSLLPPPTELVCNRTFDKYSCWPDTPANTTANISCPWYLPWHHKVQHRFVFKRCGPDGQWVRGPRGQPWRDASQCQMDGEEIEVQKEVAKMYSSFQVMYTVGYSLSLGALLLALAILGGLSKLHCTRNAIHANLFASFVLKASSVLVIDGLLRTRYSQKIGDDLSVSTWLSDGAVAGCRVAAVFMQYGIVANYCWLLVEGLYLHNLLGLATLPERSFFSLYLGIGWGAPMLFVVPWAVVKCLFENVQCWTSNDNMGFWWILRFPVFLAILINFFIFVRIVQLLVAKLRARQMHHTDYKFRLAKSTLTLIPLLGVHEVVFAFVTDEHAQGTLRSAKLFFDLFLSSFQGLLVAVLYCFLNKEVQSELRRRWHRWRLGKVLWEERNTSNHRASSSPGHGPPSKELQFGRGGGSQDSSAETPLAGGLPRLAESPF

Row | Compound | EC50 (Human GlucR) [nM] | EC50 (Human GIPr) [nM] | EC50 (Human GLP1R) [nM]
1 | CCCCCCCCCCCCCCCC(=O)N[C@@H](CCC(=O)NCCCC[C@H](NC(=O)[C@H](Cc1ccc(O)cc1)NC(=O)[C@H](CCCCN)NC(=O)[C@H](CO)NC(=O)[C@H](Cc1ccc(O)cc1)NC(=O)[C@H](CC(=O)O)NC(=O)[C@H](CO)NC(=O)[C@@H](NC(=O)[C@H](Cc1ccccc1)NC(=O)[C@@H](NC(=O)CNC(=O)[C@H](CCC(N)=O)NC(=O)[C@H](CO)NC(=O)[C@@H](N)Cc1c[nH]cn1)[C@@H](C)O)[C@@H](C)O)C(=O)N[C@@H](CC(=O)O)C(=O)N[C@@H](CO)C(=O)N[C@@H](CCCNC(=N)N)C(=O)N[C@@H](CCCNC(=N)N)C(=O)N[C@@H](C)C(=O)N[C@@H](CCCNC(=N)N)C(=O)N[C@@H](CC(=O)O)C(=O)N[C@@H](Cc1ccccc1)C(=O)N[C@H](C(=O)N[C@@H](CCC(=O)O)C(=O)N[C@@H](Cc1c[nH]c2ccccc12)C(=O)N[C@@H](CC(C)C)C(=O)N[C@@H](CCC(=O)O)C(=O)N[C@@H](C)C(=O)NCC(=O)NCC(N)=O)C(C)C)C(=O)O [g805] (H-HSQGTFTSDYSKYK([γGlu-Palmitoyl])DSRRARDFVEWLEAGG-NH2; N-terminus assumed) | 0.00144 | 99.7 | 0.0228
2 | CCCCCCCCCCCCCCCC(=O)N[C@@H](CCC(=O)N[C@@H](CCC(=O)NCCCC[C@H](NC(=O)[C@H](CO)NC(=O)[C@H](CC(=O)O)NC(=O)[C@H](CC(C)C)NC(=O)[C@H](Cc1ccc(O)cc1)NC(=O)[C@H](CCCCN)NC(=O)[C@H](CO)NC(=O)[C@H](Cc1ccc(O)cc1)NC(=O)[C@H](CC(=O)O)NC(=O)[C@H](CO)NC(=O)[C@@H](NC(=O)[C@H](Cc1ccccc1)NC(=O)[C@@H](NC(=O)CNC(=O)[C@H](CCC(N)=O)NC(=O)[C@H](CO)NC(=O)[C@@H](N)Cc1c[nH]cn1)[C@@H](C)O)[C@@H](C)O)C(=O)N[C@@H](CCCNC(=N)N)C(=O)N[C@@H](C)C(=O)N[C@@H](CCC(N)=O)C(=O)N[C@@H](CC(=O)O)C(=O)N[C@@H](Cc1ccccc1)C(=O)N[C@H](C(=O)N[C@@H](CCC(N)=O)C(=O)N[C@@H](Cc1c[nH]c2ccccc12)C(=O)N[C@@H](CC(C)C)C(=O)N[C@H](C(=O)N[C@@H](C)C(=O)NCC(=O)NCC(N)=O)C(C)C)C(C)C)C(=O)O)C(=O)O [g336] | 0.00177 | 19.6 | 0.0366
3 | CCCCCCCCCCCCCCCC(=O)N[C@@H](CCC(=O)NCCCC[C@H](NC(=O)[C@H](CO)NC(=O)[C@H](CC(=O)O)NC(=O)[C@H](CC(C)C)NC(=O)[C@H](Cc1ccc(O)cc1)NC(=O)[C@H](CCC(=O)O)NC(=O)[C@H](CO)NC(=O)[C@H](Cc1ccc(O)cc1)NC(=O)[C@H](CC(=O)O)NC(=O)[C@H](CO)NC(=O)[C@@H](NC(=O)[C@H](Cc1ccccc1)NC(=O)[C@@H](NC(=O)CNC(=O)[C@H](CCC(N)=O)NC(=O)CNC(=O)[C@@H](N)Cc1c[nH]cn1)[C@@H](C)O)[C@@H](C)O)C(=O)N[C@@H](CCCNC(=N)N)C(=O)N[C@@H](C)C(=O)N[C@@H](CCCNC(=N)N)C(=O)N[C@@H](CC(=O)O)C(=O)N[C@@H](Cc1ccccc1)C(=O)N[C@H](C(=O)N[C@@H](C)C(=O)N[C@@H](Cc1c[nH]c2ccccc12)C(=O)N[C@@H](CC(C)C)C(=O)N[C@H](C(=O)N[C@@H](C)C(=O)NCC(=O)NCC(N)=O)C(C)C)C(C)C)C(=O)O [g675] (H-HGQGTFTSDYSEYLDSK([γGlu-Palmitoyl])RARDFVAWLVAGG-NH2; N-terminus assumed) | 38.4 | 1610 | 0.151
4 | CCCCCCCCCCCCCCCC(=O)N[C@@H](CCC(=O)NCCCC[C@H](NC(=O)CNC(=O)CNC(=O)CNC(=O)CNC(=O)CNC(=O)CNC(=O)[C@H](CCCNC(=N)N)NC(=O)[C@@H](NC(=O)[C@H](CC(C)C)NC(=O)[C@H](Cc1c[nH]c2ccccc12)NC(=O)[C@H](CCC(N)=O)NC(=O)[C@@H](NC(=O)[C@H](Cc1ccccc1)NC(=O)[C@H](CC(=O)O)NC(=O)[C@H](CCC(N)=O)NC(=O)[C@H](C)NC(=O)[C@H](CCCNC(=N)N)NC(=O)[C@H](CCCNC(=N)N)NC(=O)[C@H](CO)NC(=O)[C@H](CC(=O)O)NC(=O)[C@H](CC(C)C)NC(=O)[C@H](Cc1ccc(O)cc1)NC(=O)[C@H](CCCCN)NC(=O)[C@H](CO)NC(=O)[C@H](Cc1ccc(O)cc1)NC(=O)[C@H](CC(=O)O)NC(=O)[C@H](CO)NC(=O)[C@@H](NC(=O)[C@H](Cc1ccccc1)NC(=O)[C@@H](NC(=O)CNC(=O)[C@H](CCC(N)=O)NC(=O)[C@H](CO)NC(=O)[C@@H](N)Cc1c[nH]cn1)[C@@H](C)O)[C@@H](C)O)C(C)C)C(C)C)C(N)=O)C(=O)O [g327] | 0.00232 | 12.8 | 0.0193
5 | CCCCCCCCCCCCCCCC(=O)N[C@@H](CCC(=O)NCCCC[C@H](NC(=O)[C@H](CO)NC(=O)[C@H](CC(=O)O)NC(=O)[C@H](CC(C)C)NC(=O)[C@H](Cc1ccc(O)cc1)NC(=O)[C@H](CCCCN)NC(=O)[C@H](CO)NC(=O)[C@H](Cc1ccc(O)cc1)NC(=O)[C@H](CC(=O)O)NC(=O)[C@H](CO)NC(=O)[C@@H](NC(=O)[C@H](Cc1ccccc1)NC(=O)[C@@H](NC(=O)CNC(=O)[C@H](CCC(N)=O)NC(=O)CNC(=O)[C@@H](N)Cc1c[nH]cn1)[C@@H](C)O)[C@@H](C)O)C(=O)N[C@@H](CCCNC(=N)N)C(=O)N[C@@H](C)C(=O)N[C@@H](CCCNC(=N)N)C(=O)N[C@@H](CC(=O)O)C(=O)N[C@@H](Cc1ccccc1)C(=O)N[C@H](C(=O)N[C@@H](CCC(=O)O)C(=O)N[C@@H](Cc1c[nH]c2ccccc12)C(=O)N[C@@H](CC(C)C)C(=O)N[C@H](C(=O)N[C@@H](C)C(=O)NCC(=O)NCC(N)=O)C(C)C)C(C)C)C(=O)O [g660] (H-HGQGTFTSDYSKYLDSK([γGlu-Palmitoyl])RARDFVEWLVAGG-NH2; N-terminus assumed) | 1.52 | 332 | 1.06
6 | CCCCCCCCCCCCCCCC(=O)NCCCCCC(=O)NCCCC[C@H](NC(=O)[C@H](CO)NC(=O)[C@H](CC(=O)O)NC(=O)[C@H](CC(C)C)NC(=O)[C@H](Cc1ccc(O)cc1)NC(=O)[C@H](CCC(=O)O)NC(=O)[C@H](CO)NC(=O)[C@H](Cc1ccc(O)cc1)NC(=O)[C@H](CC(=O)O)NC(=O)[C@H](CO)NC(=O)[C@@H](NC(=O)[C@H](Cc1ccccc1)NC(=O)[C@@H](NC(=O)CNC(=O)[C@H](CCC(N)=O)NC(=O)CNC(=O)[C@@H](N)Cc1c[nH]cn1)[C@@H](C)O)[C@@H](C)O)C(=O)N[C@@H](CCCNC(=N)N)C(=O)N[C@@H](C)C(=O)N[C@@H](CCCNC(=N)N)C(=O)N[C@@H](CC(=O)O)C(=O)N[C@@H](Cc1ccccc1)C(=O)N[C@H](C(=O)N[C@@H](C)C(=O)N[C@@H](Cc1c[nH]c2ccccc12)C(=O)N[C@@H](CC(C)C)C(=O)N[C@@H](CCC(=O)O)C(=O)N[C@@H](CCCNC(=N)N)C(=O)NCC(=O)NCC(=O)O)C(C)C [g727] (H-HGQGTFTSDYSEYLDSK([Ahx-Palmitoyl])RARDFVAWLERGG-OH; N-terminus assumed) | 0.218 | 177 | 0.0263

Now from value to molecule:

Row | EC50 (Human GlucR) [nM] | EC50 (Human GIPr) [nM] | EC50 (Human GLP1R) [nM] | Compound
7 | 0.00704 | 41.7 | 0.0448 | CCCCCCCCCCCCCCCC(=O)N[C@@H](CCC(=O)NCCCC[C@H](NC(=O)[C@H](CO)NC(=O)[C@H](CC(=O)O)NC(=O)[C@H](CC(C)C)NC(=O)[C@H](Cc1ccc(O)cc1)NC(=O)[C@H](CCCCN)NC(=O)[C@H](CO)NC(=O)[C@H](Cc1ccc(O)cc1)NC(=O)[C@H](CC(=O)O)NC(=O)[C@H](CO)NC(=O)[C@@H](NC(=O)[C@H](Cc1ccccc1)NC(=O)[C@@H](NC(=O)CNC(=O)[C@H](CCC(N)=O)NC(=O)[C@H](CO)NC(=O)[C@@H](N)Cc1c[nH]cn1)[C@@H](C)O)[C@@H](C)O)C(=O)N[C@@H](CCCNC(=N)N)C(=O)N[C@@H](C)C(=O)N[C@@H](CCCNC(=N)N)C(=O)N[C@@H](CC(=O)O)C(=O)N[C@@H](Cc1ccccc1)C(=O)N[C@H](C(=O)N[C@@H](C)C(=O)N[C@@H](Cc1c[nH]c2ccccc12)C(=O)N[C@@H](CC(C)C)C(=O)N[C@H](C(=O)N[C@@H](C)C(=O)NCC(=O)NCC(N)=O)C(C)C)C(C)C)C(=O)O [g867] (H-HSQGTFTSDYSKYLDSK([γGlu-Palmitoyl])RARDFVAWLVAGG-NH2; N-terminus assumed)
8 | 0.00831 | 88.3 | 0.0512 | CCCCCCCCCCCCCCCC(=O)N[C@@H](CCC(=O)NCCCC[C@H](NC(=O)[C@H](CCCNC(=N)N)NC(=O)[C@H](CO)NC(=O)[C@H](Cc1ccc(O)cc1)NC(=O)[C@H](CC(=O)O)NC(=O)[C@H](CO)NC(=O)[C@@H](NC(=O)[C@H](Cc1ccccc1)NC(=O)[C@@H](NC(=O)CNC(=O)[C@H](CCC(N)=O)NC(=O)[C@H](CO)NC(=O)[C@@H](N)Cc1c[nH]cn1)[C@@H](C)O)[C@@H](C)O)C(=O)N[C@@H](CC(C)C)C(=O)N[C@@H](CC(=O)O)C(=O)N[C@@H](CO)C(=O)N[C@@H](CCC(=O)O)C(=O)N[C@@H](CCCNC(=N)N)C(=O)N[C@@H](C)C(=O)N[C@@H](CCCNC(=N)N)C(=O)N[C@@H](CC(=O)O)C(=O)N[C@@H](Cc1ccccc1)C(=O)N[C@H](C(=O)N[C@@H](C)C(=O)N[C@@H](Cc1c[nH]c2ccccc12)C(=O)N[C@@H](CC(C)C)C(=O)N[C@H](C(=O)N[C@@H](C)C(=O)NCC(=O)NCC(=O)O)C(C)C)C(C)C)C(=O)O [g842] (H-HSQGTFTSDYSRK([γGlu-Palmitoyl])LDSERARDFVAWLVAGG-OH; N-terminus assumed)

— patent US20200354426A1 (MEDIMMUNE LIMITED, priority 2016, published 2020)
